From ChEMBL document CHEMBL1201862, “PubChem BioAssay data set” (2004)
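A five-concentration, 48-hour dose response in 96-well plates underlies each endpoint, interpolated linearly between surrounding concentrations. GI50 is the concentration that inhibits growth by half.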 Activity calls are given as the source filed them. Rule as the data show it: active = GI50 up to about 1.1 µM and inactive = higher.

What was measured:
Assay in all cases: inhibition of tumour cell growth, NCI panel, 48 h
SNB-78 = tested on: SNB-78
DLD-1 = tested on: DLD-1
DMS-273 = tested on: DMS-273
RXF 631 = tested on: RXF 631
XF498 = tested on: XF498
HOP-18 = tested on: HOP-18
KM-20L2 = tested on: KM-20L2
M19-MEL = tested on: M19-MEL
DMS-114 = tested on: DMS-114

Compound | GI50 (SNB-78) | GI50 (DLD-1) | GI50 (DMS-273) | GI50 (RXF 631) | GI50 (XF498) | GI50 (HOP-18) | GI50 (KM-20L2) | GI50 (M19-MEL) | GI50 (DMS-114)
COC(=O)C(CCCC1(c2ccccc2)OCCO1)C(C)=O (centres undefined) | > 100 µM (inactive) | > 100 µM (inactive) | > 100 µM (inactive) | > 100 µM (inactive) | > 100 µM (inactive) | > 100 µM (inactive) | > 100 µM (inactive) | > 100 µM (inactive) | –
COc1cc(C(=O)NC2CCc3cc(OC)c(OC)c(OC)c3-c3ccc(OC)c(=O)cc32)cc(OC)c1OC (centres undefined) | 0.0232 µM (active) | 0.265 µM (active) | 0.0316 µM (active) | – | 0.15 µM (active) | > 29.4 µM (inactive) | 0.0817 µM (active) | 0.0577 µM (active) | 0.0233 µM (active)
COc1ccc(C(=O)C(c2ccc(OC)cc2)C2(O)C(=O)Nc3c(Cl)cc(Cl)cc32)cc1 (centres undefined) | 18.3 µM (inactive) | 19.2 µM (inactive) | 16.3 µM (inactive) | – | 22.4 µM (inactive) | 20.1 µM (inactive) | 21.1 µM (inactive) | – | 18.4 µM (inactive)
C/C=C(/I)CBr | 29 µM (inactive) | 15.4 µM (inactive) | – | 15.3 µM (inactive) | 13.5 µM (inactive) | – | 29.5 µM (inactive) | 14.5 µM (inactive) | 12.6 µM (inactive)
O=C1OC(CC(=O)c2ccccc2Cl)C(Cl)=C1Cl (centres undefined) | 33 µM (inactive) | > 100 µM (inactive) | – | 62.4 µM (inactive) | – | > 100 µM (inactive) | – | > 100 µM (inactive) | > 100 µM (inactive)
CSCSCC(CO)NC(=O)/C=C/c1c(C)nc(O)nc1O (centres undefined) | > 100 µM (inactive) | > 100 µM (inactive) | > 100 µM (inactive) | – | – | > 100 µM (inactive) | 46.8 µM (inactive) | 84.3 µM (inactive) | 64.9 µM (inactive)
CCOC(=O)NC(=O)c1cn(CCN2CCN(C(=O)NCCCCCCNC(=O)N3CCN(CCn4cc(C(=O)NC(=O)OCC)c(=O)[nH]c4=O)CC3)CC2)c(=O)[nH]c1=O | > 100 µM (inactive) | – | > 100 µM (inactive) | > 100 µM (inactive) | > 100 µM (inactive) | > 100 µM (inactive) | > 100 µM (inactive) | > 100 µM (inactive) | > 100 µM (inactive)
NS(=O)(=O)c1cc2c(cc1Cl)NC(C(=O)c1cc(=O)c3ccc(O)cc3o1)=NS2(=O)=O | > 100 µM (inactive) | > 100 µM (inactive) | > 100 µM (inactive) | – | > 100 µM (inactive) | > 100 µM (inactive) | > 100 µM (inactive) | > 100 µM (inactive) | > 100 µM (inactive)
C=CCOC(C)n1c(C)cc(=O)n(C(C)OCC=C)c1=O (centres undefined) | > 100 µM (inactive) | > 100 µM (inactive) | > 100 µM (inactive) | – | – | > 100 µM (inactive) | > 100 µM (inactive) | > 100 µM (inactive) | > 100 µM (inactive)
Cc1ccc(C)c(N2C(=O)C(=O)C(c3nc4ccccc4o3)/C(=N/N)C2=O)c1 (centres undefined) | > 100 µM (inactive) | > 100 µM (inactive) | > 100 µM (inactive) | – | 47.6 µM (inactive) | > 100 µM (inactive) | > 100 µM (inactive) | > 100 µM (inactive) | > 100 µM (inactive)
Cc1cc2c(cc1C)[n+]([O-])c(-c1c(Cl)cccc1Cl)c(N)[n+]2[O-] | 43.9 µM (inactive) | 30.7 µM (inactive) | 32.1 µM (inactive) | 18.2 µM (inactive) | – | 18.9 µM (inactive) | 40 µM (inactive) | 34.9 µM (inactive) | 22.6 µM (inactive)
O=C1C(CO)=C(CO)C(=O)c2c(O)ccc(O)c21 | 1.7 µM (inactive) | 0.0653 µM (active) | 0.369 µM (active) | 1.26 µM (inactive) | 0.247 µM (active) | – | 0.498 µM (active) | 0.0719 µM (active) | 0.24 µM (active)
COc1cc2[nH]c3c(c2cc1OC)CCN[C@@]31CC[C@@]2(CC3c4c(cc(OC)c(O)c42)CCN3C)C[C@@H]1OC (some centres undefined) | > 85.3 µM (inactive) | 53 µM (inactive) | 41.2 µM (inactive) | 7.78 µM (inactive) | 17.1 µM (inactive) | > 38.7 µM (inactive) | 34 µM (inactive) | 19.4 µM (inactive) | 20.2 µM (inactive)
O=C1C=C(c2c(O)ccc3ccccc23)c2cc(O)ccc2C1=O | 19.2 µM (inactive) | 16.9 µM (inactive) | 15.3 µM (inactive) | – | 11.1 µM (inactive) | 26.1 µM (inactive) | 20 µM (inactive) | 3.33 µM (inactive) | 6.14 µM (inactive)
COc1cc(/C=C\c2ccc(OC(C)=O)cc2)cc(OC)c1OC | 5.62 µM (inactive) | 3.99 µM (inactive) | 0.887 µM (active) | 17.7 µM (inactive) | 3.39 µM (inactive) | – | 25.9 µM (inactive) | 6.4 µM (inactive) | 3.33 µM (inactive)
COc1ccc(/C=C/C(=O)c2c(-c3ccccc3)nn(C)c(=O)c2N2CC2C)cc1 (centres undefined) | 30.1 µM (inactive) | 26.1 µM (inactive) | 21 µM (inactive) | – | – | 27.5 µM (inactive) | 23.9 µM (inactive) | 49.9 µM (inactive) | 24.7 µM (inactive)
O=C(O)C12C=CC(C1)c1ccccc12 (centres undefined) | – | > 100 µM (inactive) | > 100 µM (inactive) | – | – | > 100 µM (inactive) | > 100 µM (inactive) | > 100 µM (inactive) | > 100 µM (inactive)
CCN(CC)CC(C(=O)Nc1c(C)cccc1C)/C(C)=N/NC(N)=S (centres undefined) | > 100 µM (inactive) | > 100 µM (inactive) | > 100 µM (inactive) | > 100 µM (inactive) | > 100 µM (inactive) | – | > 100 µM (inactive) | > 100 µM (inactive) | > 100 µM (inactive)
CN(C)c1ccc(/C=C2\C[N+](C)(C)C/C(=C\c3ccc(N(C)C)cc3)C2=O)cc1 | > 49.8 µM (inactive) | 35.9 µM (inactive) | 5.25 µM (inactive) | – | > 10 µM (inactive) | 37.1 µM (inactive) | 12.9 µM (inactive) | 13.4 µM (inactive) | 7.53 µM (inactive)
CC(Oc1cc2oc(=O)cc(-c3ccccc3)c2cc1Cl)C(=O)O (centres undefined) | > 100 µM (inactive) | > 100 µM (inactive) | – | > 100 µM (inactive) | 33.5 µM (inactive) | > 100 µM (inactive) | > 100 µM (inactive) | > 100 µM (inactive) | > 100 µM (inactive)
CC(=O)OC1=CC(n2cc(F)c(=O)[nH]c2=O)OC(C)C1=O (centres undefined) | > 100 µM (inactive) | 97.3 µM (inactive) | 41.5 µM (inactive) | – | > 100 µM (inactive) | > 100 µM (inactive) | – | 90.8 µM (inactive) | 99.3 µM (inactive)
CCOC(=O)c1ncn2c1[nH]c(=O)c1ccccc12 | > 100 µM (inactive) | – | > 100 µM (inactive) | – | > 100 µM (inactive) | – | > 100 µM (inactive) | > 100 µM (inactive) | > 100 µM (inactive)
O=C1OC(=O)C2C3CCC(O3)C12 (centres undefined) | > 100 µM (inactive) | > 100 µM (inactive) | > 100 µM (inactive) | – | > 100 µM (inactive) | > 100 µM (inactive) | – | > 100 µM (inactive) | > 100 µM (inactive)
CC1NOC(=O)C1/N=N/c1cccc(Cl)c1 (centres undefined) | 36.6 µM (inactive) | 34.6 µM (inactive) | 48.1 µM (inactive) | – | 22.3 µM (inactive) | 26.1 µM (inactive) | 35.6 µM (inactive) | 30.3 µM (inactive) | 22.4 µM (inactive)
O=C(c1ccc(Cl)cc1)c1ccc(OCC(=O)N2CCN(c3ccccc3)CC2)cc1 | 56.4 µM (inactive) | > 100 µM (inactive) | – | – | > 100 µM (inactive) | > 100 µM (inactive) | > 100 µM (inactive) | > 100 µM (inactive) | 33.2 µM (inactive)
CS/C(=N\C(=S)Nc1ccccc1)Nc1ccccc1 | 40.3 µM (inactive) | – | > 10 µM (inactive) | – | – | – | 31 µM (inactive) | 11 µM (inactive) | 0.743 µM (active)
CC1=C(C(=O)Nc2ccccc2)C(c2ccc([N+](=O)[O-])cc2)C(C(=O)Nc2ccccc2)=C(C)N1 | 33.8 µM (inactive) | 26.6 µM (inactive) | 24.4 µM (inactive) | 21.2 µM (inactive) | 15.1 µM (inactive) | – | 18.3 µM (inactive) | 16.6 µM (inactive) | 20.7 µM (inactive)
CC1=NN=C(NCCN(C)C)C/C1=C/c1ccccc1Cl | > 100 µM (inactive) | > 100 µM (inactive) | > 100 µM (inactive) | 67.5 µM (inactive) | 77.3 µM (inactive) | 61.7 µM (inactive) | 58.3 µM (inactive) | > 100 µM (inactive) | > 100 µM (inactive)
